Measurements published in patent US4879303A, “Pharmaceutically acceptable salts” (priority 1986, dated 1989).
Structures can show the parent of a compound that is named as a salt. Where two headings read alike, the source gives them in different places.

Columns and labels:
[1] = Chemical stability of salts blended in powder vehicle (tablets or capsules), breakdown products by tlc, ranked
Experimental: In order to screen for chemical stability, each of the salts was blended in a powder vehicle and formed into tablets or capsules. In the case of tablets the vehicle comprised microcrystalline cellulose in 50:50 combination with anhydrous dibasic calcium phosphate. In the case of capsules the vehicles comprised mannitol in 4:1 combination with dried maize starch. These were then stored in sealed vials at 50° and 75° C. for up to three weeks. The drug and any breakdown products were extracted with methanol:chloroform (50:50) and separated on silica tlc plates using a variety of solvent systems.
The results were compared and the salts ranked according to the number and amount of breakdown product produced.

[2] = Aqueous solubility of amlodipine salts and pH at saturation; assay type: physicochemical; conditions: for solubility (in words): qualitative statement
Description: Although amlodipine is effective as the free base, in practice it is best administered in the form of a salt of a pharmaceutically acceptable acid.
1. Generally, it is known in the art that a good aqueous solubility is necessary for good bioavailability. […] In addition, salts which provide solutions having a pH close to that of blood (7.4) are preferred because they are readily biocompatible and can easily be buffered to the required pH range without altering their solubility.

[3] = Stickiness: amlodipine sticking to tablet punch (processability); assay type: physicochemical; conditions: for Stickiness: runs of 50 to 300 tablets, calcium sulphate dihydrate/microcrystalline cellulose/salt 47.5:47.5:5, average from slope; for processability / anti-adhesion properties (in words): qualitative statement
Description: 4. The final characteristic of an acceptable salt to be considered is the processability, i.e. the compression properties and also the ability not to stick or adhere to the tablet making machinery. For high dose formulations, good compressibility is very important to make elegant tablets. With lower dose tablets the need for good compressibility can be eliminated to a certain extent by the use of suitable diluting excipients called compression aids. Microcrystalline cellulose is a commonly used compression aid. However whatever the dose the adhesion of the drug to the punches of the tablet machine must be avoided. When drug accumulates on the punch surfaces this causes the tablet surface to become pitted and therefore unacceptable. […] In practice it is possible to reduce sticking by wet-massing, careful selection of excipients and the use of high levels of anti-adherents, e.g. magnesium stearate. […] This procedure was then repeated for runs of 100, 150, 200, 250 and 300 tables. After each run the amount of material sticking to the tablet punch was measured after extraction with methanol. The values are plotted and an average value calculated from the slope of the line produced. This same procedure was then repeated for each of the salts of amlodipine.

[4] = Hygroscopicity: moisture pick-up on exposure to relative humidity; assay type: physicochemical; conditions: for moisture pick-up: 75% relative humidity, 37° C., 24 hours; for hydration state after exposure: 95% relative humidity, 30° C., 3 days
Description: 3. In order to provide stable formulations it is desirable to have a non-hygroscopic salt. In the solid state where drug content is high, absorbed films of moisture can act as a vector for hydrolysis and chemical breakdown. It is the hygroscopic nature of a drug or its salt which contributes to the free moisture which is normally responsible for instability.
Therefore the besylate salt can be considered to be non-hygroscopic and thus provides stale formulations while minimising the risk of intrinsic chemical breakdown.

[5] = assay type: physicochemical
Description: Consequently a range of pharmaceutically acceptable salts of amlodipine has been made and evaluated using these criteria: […]

[6] = Hydration / composition after isolation of the salt; assay type: physicochemical; conditions: after manufacture
[7] = listed as Toluene sulphonate (tosylate)
[8] = listed as besylate salt of amlodipine
[9] = listed as Benzene sulphonate (besylate)

Row | SMILES | solubility [2] [µg/mL] | Stability (rank order) [1] | pH at saturation [2] | Stickiness relative to maleate [3] [%] | Stickiness [3] | moisture pick-up [4] | hydration state after exposure [4] | other results
1 | CCOC(=O)C1=C(COCCN)NC(C)=C(C(=O)OC)C1c1ccccc1Cl (stereo not drawn) [Salicylate] | 1000 |  |  |  |  |  |  | Stability (rank order) ([1]; powder vehicle tablets or capsules, sealed vials, 50° and 75° C., up to three weeks, ranked by number and amount of breakdown product, listed from most stable to unstable): .dwnarw.
2 | CCOC(=O)C1=C(COCCN)NC(C)=C(C(=O)OC)C1c1ccccc1Cl (stereo not drawn) [Acetate] | 50000 | .dwnarw. | 6.6 |  |  |  |  | 
3 | CCOC(=O)C1=C(COCCN)NC(C)=C(C(=O)OC)C1c1ccccc1Cl (stereo not drawn) [Hydrochloride] | 50000 |  | 3.5 | 127 | 2.51 g Amlodipine cm^-2 tablet^-1 |  |  | 
4 | CCOC(=O)C1=C(COCCN)NC(C)=C(C(=O)OC)C1c1ccccc1Cl (stereo not drawn) [Tosylate] |  | .dwnarw. |  | 98 | 1.95 g Amlodipine cm^-2 tablet^-1 | do not pick up any moisture | formed the dihydrate salt | pH at saturation [2, 7]: 5.9; solubility [2, 7]: 900 µg/mL
5 | CCOC(=O)C1=C(COCCN)NC(C)=C(C(=O)OC)C1c1ccccc1Cl (stereo not drawn) [Succinate] | 4400 | .dwnarw. | 4.9 | 121 | 2.39 g Amlodipine cm^-2 tablet^-1 |  |  | 
6 | CCOC(=O)C1=C(COCCN)NC(C)=C(C(=O)OC)C1c1ccccc1Cl (stereo not drawn) [Besylate, amlodipine benzenesulphonate] |  | most stable |  | 59 | 1.17 g Amlodipine cm^-2 tablet^-1 | do not pick up any moisture | remain anhydrous | stability (overall conclusion) [1]: good stability; processability / anti-adhesion properties (in words) [3]: superior anti-adhesion properties to the maleate; processability / anti-adhesion properties (in words) [3, 8]: good processability; pH at saturation [2, 9]: 6.6; solubility [2, 9]: 4600 µg/mL; solubility (in words) [2, 8]: good solubility characteristics; hygroscopicity (overall conclusion) [4]: non-hygroscopic; hygroscopicity (overall conclusion) [4, 8]: non-hygroscopicity
7 | CCOC(=O)C1=C(COCCN)NC(C)=C(C(=O)OC)C1c1ccccc1Cl (stereo not drawn) [Maleate] | 4500 | .dwnarw. | 4.8 | 100 | 1.98 g Amlodipine cm^-2 tablet^-1 | do not pick up any moisture | remain anhydrous | solubility (in words) [2]: excellent solubility; stability in solution [5]: tends to break-down in solution after a few weeks
8 | CCOC(=O)C1=C(COCCN)NC(C)=C(C(=O)OC)C1c1ccccc1Cl (stereo not drawn) [Mesylate] |  | .dwnarw. |  | 58 | 1.16 g Amlodipine cm^-2 tablet^-1 |  |  | processability / anti-adhesion properties (in words) [3]: good processability; pH at saturation ([2]; listed as Methane sulphonate (mesylate)): 3.1; hydration after isolation as the anhydride [6]: equilibrates to the monohydrate
9 | CCOC(=O)C1=C(COCCN)NC(C)=C(C(=O)OC)C1c1ccccc1Cl (stereo not drawn) [Free base, 3-ethyl 5-methyl 2-(2-aminoethoxymethyl)-4-(2-chlorophenyl)-1,4-dihydro-6-methylpyridine-3,5-dicarboxylate] |  |  |  | 102 | 2.02 g Amlodipine cm^-2 tablet^-1 |  |  | 
